Key:
[1] = system: procollagen I N-terminal propeptide (P1NP); assay: Serum P1NP ELISA three weeks after implantation, Example 2; assay type: in vivo, C57BL/6 mice
Description: (§1) Three weeks after implantation, the mice were anaesthetized with inhalation of isoflurane (2%) and blood was collected by tail blood draw. After centrifuge for 10 minutes at 13000 rpm, serum was separated and kept frozen until biochemical assays were performed. Serum procollagen I N-terminal propeptide (P1NP) (MyBioSource, Inc) and TRAP5b (Novatein Biosciences, Mass.) ELISA immunoassays were performed following the manufacturer's protocols. The ELISA analyses were employed to evaluate the levels of bone biomarkers.

[2] = system: mouse tibiae; assay: Tibiae μCT to assess systemic side effects of local PTH release, Example 2; assay type: in vivo, C57BL/6 mice; conditions: compared to the BSA control group
Description: (§2) To determine the optimal PTH release mode to ensure desired PTH anabolic action in bone regeneration, the pulsatile PTH delivery device and the continuous PTH delivery device were compared in identical experimental set ups to access the outcomes of bone regeneration in a critical size (2.3 mm in diameter) round defect created in the mouse skull. The BSA loaded pulsatile devices were used as vehicle controls. All animal procedures were performed following a protocol approved by the University of Michigan Institutional Animal Care and Use Committee. C57BL/6 mice were randomly divided into four groups. Animals were anaesthetized with isoflurane (2%) inhalation. The 2.3 mm diameter craniotomy defect centered on the parietal calvarial bone was created using a trephine. A blank nanofibrous scaffold was placed to fill in the defect and a delivery device (pulsatile PTH, continuous PTH, or BSA control device) was placed adjacent to the scaffold with the opening side facing the scaffold (see FIG. 24).
Rather, PTH was subcutaneously injected for 3 weeks (21 days) using a standard systemic administration dose (40 μg/kg/d). […]
Mouse tibiae from the different groups were examined using μCT to assess the potential systemic side effects of the local PTH releases. […] A region of 0.75 mm right below the growth plate was analyzed to quantify the trabecular bone volume.

[3] = system: TRAP5b; assay: Serum TRAP5b ELISA three weeks after implantation, Example 2; assay type: in vivo, C57BL/6 mice
Description: as §1

[4] = system: mouse calvarial defect; assay: Mouse calvarial critical size defect with nanofibrous scaffold: μCT of new bone 8 weeks after implantation; assay type: in vivo, C57BL/6 mice; conditions: compared to the control BSA group; μCT and histomorphometry
Description: as §2, with “24). […]” for “24).”
For the calvarial bone analysis, the skulls were scanned with a fixed global threshold of 20%. 3D reconstruction of the skull and quantitative analyses were performed. A 2.3 mm-round region of interest centered on the defect was determined and the bone volume (mm^3) (BV) and bone mineral density (BMD) in the area were measured using manufacturer's software (Scanco μCT 100).

[5] = in vivo; cited from earlier work

**Q.** What does the source list for PTH (1-34)?
**A.** serum P1NP level (bone formation marker) [1]: significantly elevated; tibia trabecular bone volume [2]: significantly increased; serum TRAP5b level (bone resorption marker) [3]: significantly elevated; bone growth in the nanofibrous scaffold [4]: significantly promoted; half-life [5]: 8 min

— patent US11571389B2, “Delivery devices and methods for making the same” (THE REGENTS OF THE UNIVERSITY OF MICHIGAN, priority 2016, dated 2023)
